Data from PubChem BioAssay (NCI).
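How tested: cells in 96-well plates exposed to compound for 48 hours at five concentrations. TGI denotes the concentration required for complete inhibition of growth.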

Experiments:
Test in all cases: NCI tumour cell line growth inhibition, 48 h
[1] = system: 786-0 renal
[2] = system: A498 renal
[3] = system: A549 NSCLC
[4] = system: ACHN renal
[5] = system: BT-549 breast
[6] = system: CAKI-1 renal
[7] = system: CCRF-CEM leukemia
[8] = system: COLO 205 colon
[9] = system: DU-145 prostate
[10] = system: EKVX NSCLC
[11] = system: HCC-2998 colon
[12] = system: HCT-116 colon
[13] = system: HCT-15 colon
[14] = system: HL-60(TB) leukemia
[15] = system: HOP-62 NSCLC
[16] = system: HOP-92 NSCLC
[17] = system: HS 578T breast
[18] = system: HT29 colon
[19] = system: IGROV1 ovarian
[20] = system: K-562 leukemia
[21] = system: KM12 colon
[22] = system: LOX IMVI melanoma
[23] = system: M14 melanoma
[24] = system: MALME-3M melanoma
[25] = system: MCF7 breast
[26] = system: MDA-MB-231 breast
[27] = system: MDA-MB-435
[28] = system: MDA-N
[29] = system: MOLT-4 leukemia
[30] = system: NCI-H226 lung
[31] = system: NCI-H23 lung
[32] = system: NCI-H460 lung
[33] = system: NCI-H522 lung
[34] = system: NCI/ADR-RES ovarian
[35] = system: OVCAR-3 ovarian
[36] = system: OVCAR-4 ovarian
[37] = system: OVCAR-5 ovarian
[38] = system: OVCAR-8 ovarian
[39] = system: PC-3 prostate
[40] = system: RPMI-8226 leukemia
[41] = system: RXF 393 renal
[42] = system: SF-268 CNS
[43] = system: SF-295 CNS
[44] = system: SF-539 CNS
[45] = system: SK-MEL-2 melanoma
[46] = system: SK-MEL-28 melanoma
[47] = system: SK-MEL-5 melanoma
[48] = system: SK-OV-3 ovarian
[49] = system: SN12C renal
[50] = system: SNB-19 CNS
[51] = system: SNB-75 CNS
[52] = system: SR leukemia
[53] = system: SW-620 colon
[54] = system: T-47D breast
[55] = system: TK-10 renal
[56] = system: U251 CNS
[57] = system: UACC-257 melanoma
[58] = system: UACC-62 melanoma
[59] = system: UO-31 renal

CC12CCC(C(Br)(Br)C1=O)C2(C)C (stereo not drawn)
TGI [1]: 3.84 µM | TGI [2]: 17.5 µM | TGI [3]: > 100 µM | TGI [4]: 7.69 µM | TGI [5]: 2.68 µM | TGI [6]: 14.9 µM | TGI [7]: 0.196 µM | TGI [8]: 14.7 µM | TGI [9]: 37.1 µM | TGI [10]: 2.81 µM | TGI [11]: 4.91 µM | TGI [12]: 3.71 µM | TGI [13]: 3.57 µM | TGI [14]: 0.149 µM | TGI [15]: 13.6 µM | TGI [16]: 2.81 µM | TGI [17]: 9.29 µM | TGI [18]: 3.19 µM | TGI [19]: 0.516 µM | TGI [20]: 13.1 µM | TGI [21]: 16.1 µM | TGI [22]: 11.3 µM | TGI [23]: 3.98 µM | TGI [24]: 1 µM | TGI [25]: > 36.8 µM | TGI [26]: 1.51 µM | TGI [27]: 2.24 µM | TGI [28]: 2.65 µM | TGI [29]: 2.53 µM | TGI [30]: 8.64 µM | TGI [31]: 2.21 µM | TGI [32]: 27.2 µM | TGI [33]: 0.155 µM | TGI [34]: 1.06 µM | TGI [35]: 4.1 µM | TGI [36]: 5.58 µM | TGI [37]: 6.57 µM | TGI [38]: 11.3 µM | TGI [39]: 7.98 µM | TGI [40]: 1.78 µM | TGI [41]: 2.54 µM | TGI [42]: 1.22 µM | TGI [43]: 22.4 µM | TGI [44]: 16.9 µM | TGI [45]: 0.98 µM | TGI [46]: 6.46 µM | TGI [47]: 4.74 µM | TGI [48]: > 31.6 µM | TGI [49]: 5.84 µM | TGI [50]: > 57.6 µM | TGI [51]: 11.6 µM | TGI [52]: 12.9 µM | TGI [53]: 0.71 µM | TGI [54]: 1.02 µM | TGI [55]: 11 µM | TGI [56]: 0.224 µM | TGI [57]: 16.7 µM | TGI [58]: 10.1 µM | TGI [59]: 3.25 µM

C[N+](C)(CCNC(=O)c1cccc2cc3ccccc3nc12)Cc1ccc([N+](=O)[O-])cc1
TGI [1]: > 100 µM | TGI [2]: > 100 µM | TGI [3]: > 100 µM | TGI [4]: > 100 µM | TGI [5]: > 100 µM | TGI [6]: > 100 µM | TGI [7]: > 100 µM | TGI [8]: > 100 µM | TGI [9]: > 100 µM | TGI [10]: > 100 µM | TGI [11]: > 100 µM | TGI [12]: > 100 µM | TGI [13]: > 100 µM | TGI [14]: > 100 µM | TGI [15]: > 100 µM | TGI [16]: > 100 µM | TGI [17]: > 100 µM | TGI [18]: > 100 µM | TGI [19]: > 100 µM | TGI [20]: > 100 µM | TGI [21]: > 100 µM | TGI [22]: > 100 µM | TGI [23]: > 100 µM | TGI [24]: > 100 µM | TGI [25]: > 100 µM | TGI [26]: > 100 µM | TGI [27]: > 100 µM | TGI [28]: > 100 µM | TGI [29]: > 100 µM | TGI [30]: > 100 µM | TGI [31]: > 100 µM | TGI [32]: > 100 µM | TGI [33]: > 100 µM | TGI [34]: > 100 µM | TGI [35]: > 100 µM | TGI [36]: > 100 µM | TGI [37]: > 100 µM | TGI [38]: > 100 µM | TGI [39]: > 100 µM | TGI [40]: > 100 µM | TGI [41]: > 100 µM | TGI [42]: > 100 µM | TGI [43]: > 100 µM | TGI [44]: > 100 µM | TGI [45]: > 100 µM | TGI [46]: > 100 µM | TGI [47]: > 100 µM | TGI [48]: > 100 µM | TGI [49]: > 100 µM | TGI [50]: > 100 µM | TGI [51]: > 100 µM | TGI [52]: > 100 µM | TGI [53]: > 100 µM | TGI [54]: > 100 µM | TGI [55]: > 100 µM | TGI [56]: > 100 µM | TGI [57]: > 100 µM | TGI [58]: > 100 µM | TGI [59]: > 100 µM
